Where two headings read alike, the source gives them in different places.
Target: T1, Human BCL-XL protein (N-terminal HiBiT tagged BCL-XL in HT1080 cells) (Homo sapiens, UniProt Q07817)
T1 construct: expressed in transfected cells; host or cells: HT-1080 (ATCC CCL-121), stably transduced with lentivirus pLV-UBC-N-HiBiT-BCL-XL-PGK-puro and selected with puromycin
Experiment: HiBiT based degradation assay
Format: cell-based
Conditions: HT1080 cells expressing HiBiT-BCL-XL; for Ymin (24 h) / Ymin (6 h): BCL-XL degradation normalized with DMSO control; for DC50: BCL-XL degradation
Outline: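 HT1080 cells stably transduced by lentivirus with N-terminally HiBiT-tagged human BCL-XL and kept under 1 μg/mL puromycin selection were seeded at three thousand cells per well in 40 μL RPMI 1640 into 384-well plates pre-spotted with compounds across a concentration range. Luminescence was read on a PHERAstar FSX, normalized to DMSO, and fitted with a four-parameter logistic model.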

T1 sequence (Q07817 whole entry): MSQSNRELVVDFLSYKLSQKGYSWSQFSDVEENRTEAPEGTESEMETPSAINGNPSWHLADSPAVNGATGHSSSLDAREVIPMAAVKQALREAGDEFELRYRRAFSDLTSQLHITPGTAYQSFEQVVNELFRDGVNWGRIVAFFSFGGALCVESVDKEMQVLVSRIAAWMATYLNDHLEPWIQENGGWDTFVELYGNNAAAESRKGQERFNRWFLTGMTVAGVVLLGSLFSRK

| SMILES | Ymin (24 h) | DC50 (24 h, read-out: EC50 (24 h)) | Ymin (6 h) | DC50 (6 h, read-out: EC50 (6 h)) |
| --- | --- | --- | --- | --- |
| Cc1c(OCCC[C@H]2CCN(CC(=O)Nc3ccc4c(C5CCC(=O)NC5=O)nn(C)c4c3)C2)cccc1-c1ccc(N2CCc3cccc(C(=O)Nc4nc5ccccc5s4)c3C2)nc1C(=O)O (stereo partly drawn) [Compound 160b, 6-(8-(benzo[d]thiazol-2-ylcarbamoyl)-3,4-dihydroisoquinolin-2(1H)-yl)-3-(3-(3-((3S)-1-(2-((3-(2,6-dioxopiperidin-3-yl)-1-methyl-1H-indazol-6-yl)amino)-2-oxoethyl)pyrrolidin-3-yl)propoxy)-2-methylphenyl)picolinic acid] | A (Ymin < 50%) | < 100 nM |  |  |
| Cc1c(O[C@H]2CC[C@H](CCCCN3CCN(c4ccc5c(C6CCC(=O)NC6=O)nn(C)c5c4)CC3)CC2)cccc1-c1ccc(N2CCc3cccc(C(=O)Nc4nc5ccccc5s4)c3C2)nc1C(=O)O (some centres unmarked) [Compound 161a, 6-(8-(benzo[d]thiazol-2-ylcarbamoyl)-3,4-dihydroisoquinolin-2(1H)-yl)-3-(3-(((1s,4r)-4-(4-(4-(3-(2,6-dioxopiperidin-3-yl)-1-methyl-1H-indazol-6-yl)piperazin-1-yl)butyl)cyclohexyl)oxy)-2-methylphenyl)picolinic acid] | A (Ymin < 50%) | < 100 nM |  |  |
| Cc1c(O[C@@H](C)CCC2CCN(CC(=O)Nc3ccc4c(C5CCC(=O)NC5=O)nn(C)c4c3)CC2)cccc1-c1ccc(N2CCc3cccc(C(=O)Nc4nc5ccccc5s4)c3C2)nc1C(=O)O (some centres unmarked) [Compound 162a, 6-[8-(1,3-benzothiazol-2-ylcarbamoyl)-3,4-dihydro-H-isoquinolin-2-yl]-3-[3-[(1 S)-3-[1-[2-[[3-(2,6-dioxo-3-piperidyl)-1-methyl-indazol-6-yl]amino]-2-oxo-ethyl]-4-piperidyl]-1-methyl-propoxy]-2-methyl-phenyl]pyridine-2-carboxylic acid] | A (Ymin < 50%) | < 100 nM | B (50% ≤ Ymin < 70%) | < 100 nM |
| Cc1c(O[C@H](C)CCC2CCN(CC(=O)Nc3ccc4c(C5CCC(=O)NC5=O)nn(C)c4c3)CC2)cccc1-c1ccc(N2CCc3cccc(C(=O)Nc4nc5ccccc5s4)c3C2)nc1C(=O)O (stereo partly drawn) [Compound 162b, 6-[8-(1,3-benzothiazol-2-ylcarbamoyl)-3,4-dihydro-1H-isoquinolin-2-yl]-3-[3-[(1R)-3-[1-[2-[[3-(2,6-dioxo-3-piperidyl)-1-methyl-indazol-6-yl]amino]-2-oxo-ethyl]-4-piperidyl]-1-methyl-propoxy]-2-methyl-phenyl]pyridine-2-carboxylic acid] | B (50% ≤ Ymin < 70%) | < 100 nM | C (Ymin ≥ 70%) | 100 to 1000 nM |
| Cc1c(Oc2ccc(CCCCN3CCN(c4ccc5c(C6CCC(=O)NC6=O)nn(C)c5c4)CC3)cc2)cccc1-c1ccc(N2CCc3cccc(C(=O)Nc4nc5ccccc5s4)c3C2)nc1C(=O)O (centres unmarked) [Compound 163, 6-(8-(benzo[d]thiazol-2-ylcarbamoyl)-3,4-dihydroisoquinolin-2(1H)-yl)-3-(3-(4-(4-(4-(3-(2,6-dioxopiperidin-3-yl)-1-methyl-1H-indazol-6-yl)piperazin-1-yl)butyl)phenoxy)-2-methylphenyl)picolinic acid] | A (Ymin < 50%) | < 100 nM |  |  |
| Cc1c(OCCCC2CCN([C@@H](C)C(=O)Nc3ccc4c(C5CCC(=O)NC5=O)nn(C)c4c3)CC2)cccc1-c1ccc(N2CCc3cccc(C(=O)Nc4nc5ccccc5s4)c3C2)nc1C(=O)O (stereo partly drawn) [Compound 164a, 6-(8-(benzo[d]thiazol-2-ylcarbamoyl)-3,4-dihydroisoquinolin-2(1H)-yl)-3-(3-(3-(1-((2S)-1-((3-(2,6-dioxopiperidin-3-yl)-1-methyl-1H-indazol-6-yl)amino)-1-oxopropan-2-yl)piperidin-4-yl)propoxy)-2-methylphenyl)picolinic acid] | A (Ymin < 50%) | < 100 nM |  |  |
| Cc1c(OCCCC2CCN([C@H](C)C(=O)Nc3ccc4c(C5CCC(=O)NC5=O)nn(C)c4c3)CC2)cccc1-c1ccc(N2CCc3cccc(C(=O)Nc4nc5ccccc5s4)c3C2)nc1C(=O)O (stereo partly drawn) [Compound 164b, 6-(8-(benzo[d]thiazol-2-ylcarbamoyl)-3,4-dihydroisoquinolin-2(1H)-yl)-3-(3-(3-(1-((2R)-1-((3-(2,6-dioxopiperidin-3-yl)-1-methyl-1H-indazol-6-yl)amino)-1-oxopropan-2-yl)piperidin-4-yl)propoxy)-2-methylphenyl)picolinic acid] | A (Ymin < 50%) | < 100 nM |  |  |
| Cc1c(OCCCN2CCN(CCCOc3ccc4c(C5CCC(=O)NC5=O)nn(C)c4c3)C(C(F)(F)F)C2)cccc1-c1ccc(N2CCc3cccc(C(=O)Nc4nc5ccccc5s4)c3C2)nc1C(=O)O (centres unmarked) [Compound 165, 6-(8-(benzo[d]thiazol-2-ylcarbamoyl)-3,4-dihydroisoquinolin-2(1H)-yl)-3-(3-(3-(4-(3-((3-(2,6-dioxopiperidin-3-yl)-1-methyl-1H-indazol-6-yl)oxy)propyl)-3-(trifluoromethyl)piperazin-1-yl)propoxy)-2-methylphenyl)picolinic acid] | B (50% ≤ Ymin < 70%) | 100 to 1000 nM |  |  |
| Cc1c(OCCCC2CCN(C(C)(C)C(=O)Nc3ccc4c(C5CCC(=O)NC5=O)nn(C)c4c3)CC2)cccc1-c1ccc(N2CCc3cccc(C(=O)Nc4nc5ccccc5s4)c3C2)nc1C(=O)O (centres unmarked) [Compound 166, 6-[8-(1,3-benzothiazol-2-ylcarbamoyl)-3,4-dihydro-1H-isoquinolin-2-yl]-3-[3-[3-[1-[2-[[3-(2,6-dioxo-3-piperidyl)-1-methyl-indazol-6-yl]amino]-1,1-dimethyl-2-oxo-ethyl]-4-piperidyl]propoxy]-2-methyl-phenyl]pyridine-2-carboxylic acid] | B (50% ≤ Ymin < 70%) | 100 to 1000 nM |  |  |
| Cc1c(OCC[C@@H](C)C2CCN(CC(=O)Nc3ccc4c(C5CCC(=O)NC5=O)nn(C)c4c3)CC2)cccc1-c1ccc(N2CCc3cccc(C(=O)Nc4nc5ccccc5s4)c3C2)nc1C(=O)O (stereo partly drawn) [Compound 167a, 6-[8-(1,3-benzothiazol-2-ylcarbamoyl)-3,4-dihydro-1H-isoquinolin-2-yl]-3-[3-[(3R)-3-[1-[2-[[3-(2,6-dioxo-3-piperidyl)-1-methyl-indazol-6-yl]amino]-2-oxo-ethyl]-4-piperidyl]butoxy]-2-methyl-phenyl]pyridine-2-carboxylic acid] | A (Ymin < 50%) | < 100 nM |  |  |
| Cc1c(OCC[C@H](C)C2CCN(CC(=O)Nc3ccc4c(C5CCC(=O)NC5=O)nn(C)c4c3)CC2)cccc1-c1ccc(N2CCc3cccc(C(=O)Nc4nc5ccccc5s4)c3C2)nc1C(=O)O (stereo partly drawn) [Compound 167b, 6-[8-(1,3-benzothiazol-2-ylcarbamoyl)-3,4-dihydro-1H-isoquinolin-2-yl]-3-[3-[(3S)-3-[1-[2-[[3-(2,6-dioxo-3-piperidyl)-1-methyl-indazol-6-yl]amino]-2-oxo-ethyl]-4-piperidyl]butoxy]-2-methyl-phenyl]pyridine-2-carboxylic acid] | B (50% ≤ Ymin < 70%) | < 100 nM |  |  |
| Cc1c(O[C@H]2CC[C@H](CC(F)(F)CN3CCN(c4cccc5c(C6CCC(=O)NC6=O)nn(C)c45)CC3)CC2)cccc1-c1ccc(N2CCc3cccc(C(=O)Nc4nc5ccccc5s4)c3C2)nc1C(=O)O (some centres unmarked) [Compound 168a, 6-(8-(benzo[d]thiazol-2-ylcarbamoyl)-3,4-dihydroisoquinolin-2(1H)-yl)-3-(3-(((1r,4r)-4-(3-(4-(3-(2,6-dioxopiperidin-3-yl)-1-methyl-1H-indazol-7-yl)piperazin-1-yl)-2,2-difluoropropyl)cyclohexyl)oxy)-2-methylphenyl)picolinic acid] | B (50% ≤ Ymin < 70%) | < 100 nM |  |  |
| Cc1c(O[C@@H](C)CCC2CCN(CC(=O)Nc3cccc4c(C5CCC(=O)NC5=O)nn(C)c34)CC2)cccc1-c1ccc(N2CCc3cccc(C(=O)Nc4nc5ccccc5s4)c3C2)nc1C(=O)O (stereo partly drawn) [Compound 169a, 6-[8-(1,3-benzothiazol-2-ylcarbamoyl)-3,4-dihydro-1H-isoquinolin-2-yl]-3-[3-[(1S)-3-[1-[2-[[3-(2,6-dioxo-3-piperidyl)-1-methyl-indazol-7-yl]amino]-2-oxo-ethyl]-4-piperidyl]-1-methyl-propoxy]-2-methyl-phenyl]pyridine-2-carboxylic acid] | B (50% ≤ Ymin < 70%) | < 100 nM | B (50% ≤ Ymin < 70%) | 100 to 1000 nM |
| Cc1c(O[C@H](C)CCC2CCN(CC(=O)Nc3cccc4c(C5CCC(=O)NC5=O)nn(C)c34)CC2)cccc1-c1ccc(N2CCc3cccc(C(=O)Nc4nc5ccccc5s4)c3C2)nc1C(=O)O (stereo partly drawn) [Compound 169b, 6-[8-(1,3-benzothiazol-2-ylcarbamoyl)-3,4-dihydro-1H-isoquinolin-2-yl]-3-[3-[(1R)-3-[1-[2-[[3-(2,6-dioxo-3-piperidyl)-1-methyl-indazol-7-yl]amino]-2-oxo-ethyl]-4-piperidyl]-1-methyl-propoxy]-2-methyl-phenyl] pyridine-2-carboxylic acid] | B (50% ≤ Ymin < 70%) | < 100 nM | C (Ymin ≥ 70%) | < 100 nM |
| Cc1c(OCC(F)(F)CC2CCN(CC(=O)Nc3cccc4c(C5CCC(=O)NC5=O)nn(C)c34)CC2)cccc1-c1ccc(N2CCc3cccc(C(=O)Nc4nc5ccccc5s4)c3C2)nc1C(=O)O (centres unmarked) [Compound 170, 6-[8-(1,3-benzothiazol-2-ylcarbamoyl)-3,4-dihydro-1H-isoquinolin-2-yl]-3-[3-[3-[1-[2-[[3-(2,6-dioxo-3-piperidyl)-1-methyl-indazol-7-yl]amino]-2-oxo-ethyl]-4-piperidyl]-2,2-difluoro-propoxy]-2-methyl-phenyl]pyridine-2-carboxylic acid] | B (50% ≤ Ymin < 70%) | 100 to 1000 nM |  |  |

From patent publication US20240238423A9, “TETRAHYDROISOQUINOLINE HETEROBIFUNCTIONAL BCL-XL DEGRADERS” (Treeline Biosciences, Inc., priority 2022, published 2024)
